The values below come from paper PMC8591201, “Anti-Tumor Activity of AZD4547 Against NTRK1 Fusion Positive Cancer Cells Through Inhibition of NTRKs” (Frontiers in Oncology, 2021).

What all share (assay): cells
Set-up in all cases: Anti-proliferation, 10-point dose response, CellTiter-Glo luminescence (MTT stated for KM12(Luc)), GI50 fitted in Prism
(In general: In ATP-based viability assays light output follows the ATP content of the culture.)

One test concerns HEP3B. To be noted: Homo sapiens, Hep3B, 72 h, read-out: GI50 (µM) a. Here is the method:
(§1) To obtain the GI50 value of a substance, cell viability was measured using MTT (G4000, Promega, USA) for KM12(Luc) cell and Cell titer glo (G7572, Promega, USA) for other cell lines. For adherent cells, cells were seeded at 5,000 cells/well in a 96-well plate and treated with a substance one day after cell seeding. For suspension cells, 10,000 cells/well were seeded and the substance was treated after 4 h stabilization of cells. The substance was treated at 10 points of 1:3 serial dilution (0–100 µmol/L) for 72 h. For MTT assay, 15 µL dye solution was added to each well and incubated 4 h at 37°C. 100 µL of solubilization solution was added and followed 1 hr incubation. Absorbance at 570 nm of each well was recorded using EnVision microplate reader (Perkin Elmer). For Cell titer glo assay, Cell titer glo reagent was treated in each well and measured the luminescence by EnVision microplate reader (Perkin Elmer). Viable cells in each well were normalized by using 0.5% DMSO-treated wells (100%). The inhibitor dose−response curve was fitted and GI50 values were calculated using Prism 7.0 software (GraphPad). All assays were performed in duplicate and the standard deviation (SD) was determined from two independent experiments. KM12(Luc) was purchased from the JCRB cell bank. KM12 (Luc) was used within 6 months after purchase and the DNA profiles were confirmed using a short tandem repeat (STR) analysis by the Korean Cell Line Bank. KM12(Luc) cells were maintained in DMEM supplemented with 10% FBS and antibiotics. Parental Ba/F3 cells were purchased from DSMZ and were grown in RPMI1640 supplemented with 10% FBS and antibiotics in the presence of IL3, Transformed Ba/F3 cell lines were grown in the same media without IL3. Cells used in this study were negative for mycoplasma contamination. AN3-CA, HEC1A, U138, 8505C, MKN28, MKN45, A172, A375, Capan-1 HeLa, HEP3B, MCF-7 and MIA-paca-2 cells were maintained in DMEM (Welgene, Korea) supplemented with 10% FBS and antibiotics (Welgene, Korea). Otherwise, all cells were maintained in RPMI (Welgene, Korea) supplemented with 10% FBS and antibiotics (Welgene, Korea). To identify AZD4547 sensitive cell lines other than FGFR-mutant driven cancer cells, GI50 values were determined for AZD4547 against 64 different cancer cell lines, including AN3-CA used as a positive control ( Figure 1A and Table S1 ). […] Also, inhibitory activity of AZD4547 against DDR1 or FLT3 allows suppression of proliferation of U-2-OS and MV4-11 ([43]). Therefore, our attention focused on the inhibitory activity of AZD4547 against KM12(Luc) cell lines which have the TPM3-NTRK1 fusion gene. To exclude the possibility that the anti-proliferation activity of AZD4547 against KM12(Luc) is a common characteristic of FGFR inhibitors, we determined if BGJ398, a representative FGFR inhibitor, is also capable of suppressing proliferation of KM12(Luc) cells ( Figure 1B ).

Another test has as its system K-562. To be noted: Homo sapiens, K562, 72 h, read-out: GI50 (µM) a. As to the method: as §1
The next test has as its system KG-1. To be noted: Homo sapiens, KG-1, 72 h, read-out: GI50 (µM) a. As to the method: as §1
The subject of another test is LNCaP. To be noted: Homo sapiens, LNCaP, 72 h, read-out: GI50 (µM) a. Here is the method:
as §1

Another test has as its system MCF7. To be noted: Homo sapiens, MCF7, 72 h, read-out: GI50 (µM) a. As to the method: as §1
The test system of a further test is MOLT-4. To be noted: Homo sapiens, MOLT-4, 72 h, read-out: GI50 (µM) a. Here is the method:
as §1

The subject of another test is MV-4-11. Conditions: Homo sapiens, MV4-11, 72 h, read-out: GI50 (µM) a. As to the method:
as §1

The subject of a further test is Molm-14. To be noted: Homo sapiens, MOLM-14, 72 h, read-out: GI50 (µM) a. Here is the method:
as §1

For a further test, the system named is NCI-H417. To be noted: Homo sapiens, NCI-H417, 72 h, read-out: GI50 (µM) a. As to the method:
as §1

For the next test, the system named is SW620. Conditions: Homo sapiens, SW-620, 72 h, read-out: GI50 (µM) a. As to the method: as §1
The next test relates to U138. Conditions: KM12-Luc, 72 h, read-out: GI50 (µM) a. Here is the method:
as §1

The test system of another test is U937. To be noted: Homo sapiens, U-937, 72 h, read-out: GI50 (µM) a. As to the method:
as §1

A word on the GI50: it is the concentration at which growth is held to half of that of the control. Take `COc1cc(CCc2cc(NC(=O)c3ccc(N4C[C@@H](C)N[C@@H](C)C4)cc3)n[nH]2)cc(OC)c1` [AZD4547]: the concentration for 50% growth inhibition (GI50) in the test with HEP3B is 19.7 µM; in the test with K-562, 17.1 µM; with KG-1 it was 6.27 µM; with LNCaP, 22.7 µM; in the test on MCF7 it was 7.84 µM; in the test on MOLT-4 it was 6.59 µM. In addition, the concentration for 50% growth inhibition (GI50) turned out to be 0.93 µM in the test with MV-4-11; 1.25 µM with Molm-14; 5.99 µM in the test on NCI-H417; 11 µM in the test on SW620; 8.48 µM in the test on U138; 12.2 µM in the test on U937.
